In data set [1] the target is SARS-CoV-2 3CLpro (Severe acute respiratory syndrome coronavirus 2, UniProt P0DTD1). Briefly: biochemical.
Data set [2] concerns the target SARS-CoV 3CLpro (Severe acute respiratory syndrome coronavirus, UniProt P0C6X7). It is filed as biochemical.
The subject of data set [3] is SARS-CoV-2 (wild-type strain). In words: microbe, parasite or virus in culture. It is filed as cell-based. The following applies: Severe acute respiratory syndrome coronavirus 2.
The subject of data set [4] is SARS-CoV-2. More on the design: species or system K18-hACE2 transgenic mice. Conditions: mouse, in vivo, po, 300 mg/kg.
In data set [5] the test system is SARS-CoV-2. Conditions: cited from earlier work.
Data set [6] has as its system SARS-CoV-2 (wild-type strain). Briefly: microbe, parasite or virus in culture. Format: cell-based. The following applies: Severe acute respiratory syndrome coronavirus 2, 48 h.
For data set [7], the system named is SARS-CoV-2 (wild-type strain). Briefly: microbe, parasite or virus in culture. It is filed as cell-based. The following applies: Severe acute respiratory syndrome coronavirus 2, Calu-3.
Data set [8] can be described thus: in vitro. The following applies: human.

Structures are written as SMILES. A value given as a limit tells only on which side of the number the result lay.

Consider twelve molecules from publication PMC9885526 (ACS Central Science, 2023).

In the case of `CNC(=O)c1cc(Br)cc([N+](=O)[O-])c1N[C@@H]1CCCC[C@@H]1NC(=O)c1cncc2cc(O)ccc12` [WU-09], the IC50 in data set [1] worked out at 221 ± 35 nM. Consider `CNC(=O)c1cc(Br)cc([N+](=O)[O-])c1NC(C(C)C)C1CN(C(=O)c2cncc3cc(O)ccc23)C1` (stereo not shown) [WU-05], for which half-maximal inhibition in data set [1] (IC50) required 122 ± 16 nM.

`CNC(=O)c1cc(Br)ccc1N[C@@H]1CCCC[C@@H]1NC(=O)c1cncc2ccccc12` [WU-06]: the “inhibitory activity against SARS-CoV-2 3CLpro” value in data set [1] was “abolished the activity”. Further, in data set [2], the “inhibition of SARS-CoV 3CLpro enzyme activity” value is recorded as “showed no activity”. Regarding `CC(C)(C)[C@H](NC(=O)C(F)(F)F)C(=O)N1C[C@H]2[C@@H]([C@H]1C(=O)N[C@H](C#N)C[C@@H]1CCNC1=O)C2(C)C` [PF-07321332, Nirmatrelvir], the EC50 in data set [3] stood at 117 nM. Also, in data set [4], the “average body weight change” value was “did not change”. For `CNC(=O)c1cc(Br)cc(C(F)(F)F)c1N[C@@H]1CCCC[C@@H]1NC(=O)c1cncc2ccccc12` [WU-07], 239 ± 16 nM corresponded to half-maximal inhibition in data set [1] (IC50). On to `O=C(Cn1nnc2ccccc21)N(Cc1cccc(Cl)c1)c1ccc(-c2cnc[nH]2)cc1` [CCF0058981], for which the concentration for a half-maximal effect (EC50) in data set [5] was around 500 nM. In the case of `CCC(CCNc1c(C(=O)NC)cc(Br)cc1[N+](=O)[O-])NC(=O)c1cncc2cccc(O)c12` (stereo not shown) [WU-01], the IC50 in data set [1] is 648 ± 68 nM. Molecule `CNC(=O)c1cc(Br)cc([N+](=O)[O-])c1N1CC[C@@]2(CN(C(=O)c3cncc4cc(O)ccc34)C[C@@H]2c2ccccc2)C1` [WU-02] gave an IC50 in data set [1] of 71 nM. In data set [6], this molecule displayed an EC50 of 54 nM and an EC90 of 305 nM. For the same molecule, in data set [7], the EC50 came out at 80 nM and the 90% effect concentration (EC90) was 201 ± 57 nM. In data set [8], this molecule yielded a CC50 above 20000 nM. In data set [1], `O=C(O)c1cc(Br)cc([N+](=O)[O-])c1N[C@@H]1CCCC[C@@H]1NC(=O)c1cncc2ccccc12` [WU-12] showed an IC50 of 6110 ± 2630 nM. For `CNC(=O)c1cc(Br)cc(C#N)c1N[C@@H]1CCCC[C@@H]1NC(=O)c1cncc2ccccc12` [WU-08], in data set [1], inhibition was half-maximal at 467 ± 64 nM (IC50). The same measure, in the same setting: as for `CNC(=O)c1cc(Br)cc([N+](=O)[O-])c1N[C@@H]1CCCC[C@@H]1NC(=O)c1cncc2cccc(O)c12` [WU-10], the figure is 135 ± 8 nM.

In data set [1], `COC(=O)c1cc(Br)cc([N+](=O)[O-])c1N[C@@H]1CCCC[C@@H]1NC(=O)c1cncc2ccccc12` [WU-11] yielded an IC50 of 849 ± 161 nM.
